Source: ChEMBL document CHEMBL1128144, “Cyclic sulfone-3-carboxamides as novel P2-ligands for Ro 31-8959 based HIV-1 protease inhibitors” (Bioorg Med Chem Lett, 1995)

System: MT4
Assay: Inhibitory activity against HIV-1 in MT-4 lymphoid cells infected with IIIb
Type: functional
Settings: Homo sapiens, read-out: CIC95

First: CC(C)(C)NC(=O)[C@@H]1C[C@@H]2CCCC[C@@H]2CN1C[C@@H](O)[C@H](Cc1ccccc1)NC(=O)[C@@H]1CCCS(=O)(=O)C1
Second: CC(C)(C)NC(=O)[C@@H]1C[C@@H]2CCCC[C@@H]2CN1C[C@@H](O)[C@H](Cc1ccccc1)NC(=O)[C@H]1CCCS(=O)(=O)C1
The IC95 of the first is 2-fold lower: 200 nM for the first, 400 nM for the second.

Target: Human immunodeficiency virus type 1 protease (Human immunodeficiency virus 1, UniProt Q72874)
Assay: Inhibition of HIV-1 Protease
Settings: not given

CC(C)(C)NC(=O)[C@@H]1C[C@@H]2CCCC[C@@H]2CN1C[C@@H](O)[C@H](Cc1ccccc1)NC(=O)[C@H]1CCS(=O)(=O)C1 and CC(C)(C)NC(=O)[C@@H]1C[C@@H]2CCCC[C@@H]2CN1C[C@@H](O)[C@H](Cc1ccccc1)NC(=O)[C@@H]1CCS(=O)(=O)C1 are within 1.5-fold of each other in IC50: 193 nM for the first, 200 nM for the second.

Going from CC(C)(C)NC(=O)[C@@H]1C[C@@H]2CCCC[C@@H]2CN1C[C@@H](O)[C@H](Cc1ccccc1)NC(=O)[C@H]1CCSC1 to CC(C)(C)NC(=O)[C@@H]1C[C@@H]2CCCC[C@@H]2CN1C[C@@H](O)[C@H](Cc1ccccc1)NC(=O)[C@@H]1CCSC1, the IC50 falls from 650 nM to 342 nM (1.9-fold).

Going from CC(C)(C)NC(=O)[C@@H]1C[C@@H]2CCCC[C@@H]2CN1C[C@@H](O)[C@H](Cc1ccccc1)NC(=O)[C@@H]1CCCS(=O)(=O)C1 to CC(C)(C)NC(=O)[C@@H]1C[C@@H]2CCCC[C@@H]2CN1C[C@@H](O)[C@H](Cc1ccccc1)NC(=O)[C@H]1CCCS(=O)(=O)C1, the IC50 rises from 9.2 nM to 23.5 nM (2.6-fold).

CC(C)(C)NC(=O)[C@@H]1C[C@@H]2CCCC[C@@H]2CN1C[C@@H](O)[C@H](Cc1ccccc1)NC(=O)[C@H]1CCCSC1 and CC(C)(C)NC(=O)[C@@H]1C[C@@H]2CCCC[C@@H]2CN1C[C@@H](O)[C@H](Cc1ccccc1)NC(=O)[C@@H]1CCCSC1 are within 1.5-fold of each other in IC50: 98.8 nM for the first, 78.4 nM for the second.

Compared with CC(C)(C)NC(=O)[C@@H]1C[C@@H]2CCCC[C@@H]2CN1C[C@@H](O)[C@H](Cc1ccccc1)NC(=O)C1=CCCS(=O)(=O)C1, CC(C)(C)NC(=O)[C@@H]1C[C@@H]2CCCC[C@@H]2CN1C[C@@H](O)[C@H](Cc1ccccc1)NC(=O)C1=CCCSC1 is 3.1-fold higher in IC50: 54.7 nM for the first, 167 nM for the second. The first is the more potent here.
